Data reported in ChEMBL document CHEMBL4665820, “Discovery of VU6027459: A First-in-Class Selective and CNS Penetrant mGlu Positive Allosteric Modulator Tool Compound” (ACS Med Chem Lett, 2020).

Legend:
[1] = biological target: Beta-1 adrenergic receptor (Homo sapiens) (UniProt P08588); experiment: Displacement of [3H](-)CGP 12177 from human beta1 adrenoceptor at 10 uM after 60 mins by scintillation counting analysis relative to control
[2] = biological target: Neuropeptide Y receptor type 1 (Homo sapiens) (UniProt P25929); experiment: Displacement of [125I]peptide YY from human Y1 receptor at 10 uM after 120 mins by scintillation counting analysis relative to control
Neuropeptide Y receptor type 1 (Homo sapiens), sequence (P25929 whole entry): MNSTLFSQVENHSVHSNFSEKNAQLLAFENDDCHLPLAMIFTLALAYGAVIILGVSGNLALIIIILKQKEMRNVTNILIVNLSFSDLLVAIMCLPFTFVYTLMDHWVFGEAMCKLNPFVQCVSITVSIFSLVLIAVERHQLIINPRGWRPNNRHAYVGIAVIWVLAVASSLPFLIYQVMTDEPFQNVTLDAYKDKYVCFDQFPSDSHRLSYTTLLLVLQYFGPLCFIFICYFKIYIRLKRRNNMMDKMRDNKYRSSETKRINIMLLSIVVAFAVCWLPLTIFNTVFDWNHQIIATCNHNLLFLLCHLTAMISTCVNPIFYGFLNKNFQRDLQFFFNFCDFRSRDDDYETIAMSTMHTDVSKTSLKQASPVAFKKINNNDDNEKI

[3] = biological target: Mu-type opioid receptor (Homo sapiens) (UniProt P35372); experiment: Displacement of [3H]DAMGO from human recombinant mu receptor at 10 uM after 120 mins by scintillation counting analysis relative to control
[4] = biological target: Glutamate NMDA receptor (Rattus norvegicus) (UniProt P35439+Q00959+Q00960+Q00961+Q62645+Q8VHN2+Q9R1M7); experiment: Displacement of [3H]-CGP39653 from NMDA glutamate receptor in rat at 10 uM incubated for 20 mins by scintillation counting analysis relative to control
[5] = biological target: Histamine H3 receptor (Homo sapiens) (UniProt Q9Y5N1); experiment: Displacement of [3H]-N-alpha-Methylhistamine from human recombinant Histamine H3 receptor at 10 uM incubated for 60 mins by scintillation counting analysis relative to control
[6] = biological target: Kappa-type opioid receptor (Homo sapiens) (UniProt P41145); experiment: Displacement of [3H]U69593 from human kappa receptor at 10 uM after 60 mins by scintillation counting analysis relative to control
[7] = biological target: Alpha-1D adrenergic receptor (Homo sapiens) (UniProt P25100); experiment: Displacement of [3H]-Prazosin from human recombinant adrenergic alpha 1D receptor at 10 uM incubated for 60 mins by scintillation counting analysis relative to control
Rattus norvegicus [8] = species on record: Rattus norvegicus; experiment: Displacement of [3H]-Kainic acid from Glutamate ionotropic kainate receptor in rat at 10 uM incubated for 120 mins by scintillation counting analysis relative to control
[9] = biological target: Metabotropic glutamate receptor 7 (Rattus norvegicus, UniProt P35400); experiment: Positive allosteric modulation of rat mGlu7 receptor expressed in HEK293 cells co-expressing Gai5 assessed as potentiation of L-AP4-induced calcium mobilization preincubated for 140 secs and treated with EC20 L-AP4 for 125 secs and followed by subsequent addition of EC80 L-AP4 by Fluo-4-AM dye based fluorescence assay; format: functional, cell-based; conditions: read-out: EC50
Metabotropic glutamate receptor 7, sequence (P35400 whole entry): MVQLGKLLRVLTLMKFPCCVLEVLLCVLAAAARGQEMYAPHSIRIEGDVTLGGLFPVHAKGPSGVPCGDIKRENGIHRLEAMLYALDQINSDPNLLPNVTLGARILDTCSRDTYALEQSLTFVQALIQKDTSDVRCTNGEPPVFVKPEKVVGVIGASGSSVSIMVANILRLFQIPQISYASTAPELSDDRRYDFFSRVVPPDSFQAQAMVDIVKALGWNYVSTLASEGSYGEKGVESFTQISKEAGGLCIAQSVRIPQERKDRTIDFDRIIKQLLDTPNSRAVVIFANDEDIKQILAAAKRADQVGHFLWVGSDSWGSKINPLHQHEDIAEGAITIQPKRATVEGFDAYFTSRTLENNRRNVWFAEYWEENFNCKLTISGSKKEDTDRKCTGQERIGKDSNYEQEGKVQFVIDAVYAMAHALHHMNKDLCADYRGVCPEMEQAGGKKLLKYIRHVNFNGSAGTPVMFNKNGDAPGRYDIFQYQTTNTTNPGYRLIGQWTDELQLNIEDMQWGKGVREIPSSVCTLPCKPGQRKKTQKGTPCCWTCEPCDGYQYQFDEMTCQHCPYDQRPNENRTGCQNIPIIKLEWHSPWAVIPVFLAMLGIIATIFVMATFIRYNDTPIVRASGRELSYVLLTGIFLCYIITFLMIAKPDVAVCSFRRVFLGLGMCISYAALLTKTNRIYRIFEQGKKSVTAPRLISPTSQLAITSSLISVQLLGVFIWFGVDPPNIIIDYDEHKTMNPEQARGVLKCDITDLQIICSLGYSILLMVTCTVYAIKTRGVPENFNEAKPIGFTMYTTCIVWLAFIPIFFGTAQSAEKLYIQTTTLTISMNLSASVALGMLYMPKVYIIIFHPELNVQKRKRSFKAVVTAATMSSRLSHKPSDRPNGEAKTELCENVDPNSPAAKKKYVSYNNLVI

[10] = biological target: Sodium-dependent dopamine transporter (Homo sapiens, UniProt Q01959); experiment: Displacement of […] from recombinant human Dopamine transporter after 120 mins by scintillation counting analysis; format: ADME
[11] = biological target: Cannabinoid receptor 1 (Homo sapiens) (UniProt P21554); experiment: Displacement of [3H]-SR141716A from human recombinant full length Cannabinoid CB1 receptor at 10 uM incubated for 60 mins by scintillation counting analysis relative to control
Rattus norvegicus [12] = species on record: Rattus norvegicus; experiment: Displacement of [3H]-GABA in GABA transporter in rat brain membrane at 10 uM incubated for 30 mins by scintillation counting analysis elative to control; format: cell membranes
[13] = biological target: Muscarinic acetylcholine receptor M1 (Homo sapiens) (UniProt P11229); experiment: Displacement of [125I]pirenzepine from human recombinant M1 receptor at 10 uM after 60 mins by scintillation counting analysis relative to control
[14] = biological target: Histamine H2 receptor (Homo sapiens) (UniProt P25021); experiment: Displacement of [125I]APT from human recombinant histamine H2 receptor at 10 uM after 120 mins by scintillation counting analysis relative to control
Histamine H2 receptor (Homo sapiens), sequence (P25021 whole entry): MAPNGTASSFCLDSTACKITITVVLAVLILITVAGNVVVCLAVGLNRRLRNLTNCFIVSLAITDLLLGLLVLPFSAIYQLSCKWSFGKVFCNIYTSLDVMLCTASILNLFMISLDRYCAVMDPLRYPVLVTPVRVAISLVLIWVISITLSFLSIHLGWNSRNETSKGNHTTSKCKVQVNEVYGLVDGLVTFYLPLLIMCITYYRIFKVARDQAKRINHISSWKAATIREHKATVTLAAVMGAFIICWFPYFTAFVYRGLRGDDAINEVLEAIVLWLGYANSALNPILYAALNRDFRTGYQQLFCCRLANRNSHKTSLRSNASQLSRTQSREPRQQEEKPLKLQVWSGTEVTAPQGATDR

[15] = biological target: Substance-P receptor (Homo sapiens) (UniProt P25103); experiment: Displacement of [125I]-Substance P LYS3 from human recombinant tachykinin NK1 receptor at 10 uM incubated for 30 mins by scintillation counting analysis relative to control
Rattus norvegicus [16] = species on record: Rattus norvegicus; experiment: Displacement of [3H]-Flunitrazepam from GABAA channel flunitrazepam binding site in rat brain at 10 uM incubated for 60 mins by scintillation counting analysis relative to control; format: tissue-based
[17] = biological target: Sodium-dependent noradrenaline transporter (Homo sapiens) (UniProt P23975); experiment: Displacement of […] from recombinant human norepinephrine transporter at 10 uM after 120 mins by scintillation counting analysis relative to control
Sodium-dependent noradrenaline transporter (Homo sapiens), sequence (P23975 whole entry): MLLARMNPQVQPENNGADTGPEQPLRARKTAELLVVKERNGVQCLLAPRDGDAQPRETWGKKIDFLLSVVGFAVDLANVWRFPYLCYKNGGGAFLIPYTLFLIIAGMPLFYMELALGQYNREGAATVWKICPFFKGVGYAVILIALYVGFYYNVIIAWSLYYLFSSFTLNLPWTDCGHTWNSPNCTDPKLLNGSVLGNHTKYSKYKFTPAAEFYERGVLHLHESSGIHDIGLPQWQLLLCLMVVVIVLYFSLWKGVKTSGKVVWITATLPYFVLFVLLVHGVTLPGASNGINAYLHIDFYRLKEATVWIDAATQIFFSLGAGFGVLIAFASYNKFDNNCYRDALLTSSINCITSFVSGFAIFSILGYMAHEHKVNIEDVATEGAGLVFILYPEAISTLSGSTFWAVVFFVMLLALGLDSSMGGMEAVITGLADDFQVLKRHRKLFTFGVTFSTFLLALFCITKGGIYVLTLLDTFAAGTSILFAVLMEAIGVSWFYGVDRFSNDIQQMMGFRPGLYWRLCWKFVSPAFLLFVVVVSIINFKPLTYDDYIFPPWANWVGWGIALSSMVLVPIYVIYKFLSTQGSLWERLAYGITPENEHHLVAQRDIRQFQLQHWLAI

[18] = biological target: Interleukin-1 receptor type 1 (Homo sapiens) (UniProt P14778); experiment: Displacement of [125I]-Interleukin 1beta from human interleukin IL-1 R1 receptor at 10 uM incubated for 120 mins by scintillation counting analysis relative to control
[19] = biological target: Histamine H1 receptor (Homo sapiens) (UniProt P35367); experiment: Displacement of [3H]pyrilamine from human recombinant histamine H1 receptor at 10 uM after 60 mins by scintillation counting analysis relative to control
Histamine H1 receptor (Homo sapiens), sequence (P35367 whole entry): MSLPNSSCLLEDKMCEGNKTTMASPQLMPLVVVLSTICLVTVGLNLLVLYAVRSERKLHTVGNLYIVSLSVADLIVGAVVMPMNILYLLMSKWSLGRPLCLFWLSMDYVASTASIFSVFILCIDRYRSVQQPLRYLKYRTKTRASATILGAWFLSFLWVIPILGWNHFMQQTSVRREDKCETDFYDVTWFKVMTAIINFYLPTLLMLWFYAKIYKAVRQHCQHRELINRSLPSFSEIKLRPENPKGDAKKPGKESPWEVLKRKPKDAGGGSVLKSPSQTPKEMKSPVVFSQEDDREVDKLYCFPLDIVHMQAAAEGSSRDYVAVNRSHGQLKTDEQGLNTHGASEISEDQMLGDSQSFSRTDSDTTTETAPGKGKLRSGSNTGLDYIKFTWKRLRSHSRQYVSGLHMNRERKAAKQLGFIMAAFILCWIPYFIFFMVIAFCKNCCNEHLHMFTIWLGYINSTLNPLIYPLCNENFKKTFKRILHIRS

CHO-K1 = experiment: Inhibition of human recombinant full length Dopamine D4.2 receptor expressed in CHOK1 cells at 10 uM incubated for 30 mins by GTPgammaS assay relative to control; format: cell-based
[20] = biological target: Acetylcholine receptor subunit alpha (Homo sapiens) (UniProt P02708); experiment: Displacement of [125I] alpha-Bungarotoxin from human nicotinic acetylcholine alpha 1 receptor at 10 uM incubated for 120 mins by radioligand binding assay relative to control
Rattus norvegicus [21] = species on record: Rattus norvegicus; experiment: Displacement of [3H]-Batrachotoxinin from rat sodium channel site 2 at 10 uM incubated for 60 mins by scintillation counting analysis relative to control
[22] = biological target: Glucocorticoid receptor (Homo sapiens) (UniProt P04150); experiment: Displacement of [3H]-Dexamethasone from human Glucocorticoid receptors at 10 uM incubated for 360 mins by scintillation counting analysis relative to control
[23] = biological target: 5-hydroxytryptamine receptor 2B (Homo sapiens) (UniProt P41595); experiment: Displacement of [125I]+/-DOI from human recombinant 5-HT2B receptor at 10 uM after 60 mins by scintillation counting analysis relative to control
5-hydroxytryptamine receptor 2B (Homo sapiens), sequence (P41595 whole entry): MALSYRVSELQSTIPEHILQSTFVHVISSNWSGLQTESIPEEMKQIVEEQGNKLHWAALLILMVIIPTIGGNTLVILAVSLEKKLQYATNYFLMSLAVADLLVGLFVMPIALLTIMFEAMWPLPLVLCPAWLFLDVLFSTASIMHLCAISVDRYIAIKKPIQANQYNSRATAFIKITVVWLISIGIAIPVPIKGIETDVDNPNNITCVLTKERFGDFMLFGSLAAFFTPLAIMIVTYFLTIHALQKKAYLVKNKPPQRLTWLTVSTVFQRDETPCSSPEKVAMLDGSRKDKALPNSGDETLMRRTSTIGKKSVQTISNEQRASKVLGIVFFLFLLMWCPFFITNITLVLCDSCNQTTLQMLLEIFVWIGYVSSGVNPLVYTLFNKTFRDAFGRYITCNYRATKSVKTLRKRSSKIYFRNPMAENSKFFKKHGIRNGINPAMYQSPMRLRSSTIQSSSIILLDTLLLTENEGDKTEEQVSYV

[24] = Fraction unbound in mouse plasma at 5 uM incubated for 4 hrs by equilibrium dialysis based LC-MS/MS analysis; format: ADME, cell-free
[25] = biological target: Sigma non-opioid intracellular receptor 1 (Homo sapiens, UniProt Q99720); experiment: Displacement of [3H]-Pentazocine from human recombinant sigma 1 receptor at 10 uM incubated for 120 mins by scintillation counting analysis relative to control
Sigma non-opioid intracellular receptor 1, sequence (Q99720 whole entry): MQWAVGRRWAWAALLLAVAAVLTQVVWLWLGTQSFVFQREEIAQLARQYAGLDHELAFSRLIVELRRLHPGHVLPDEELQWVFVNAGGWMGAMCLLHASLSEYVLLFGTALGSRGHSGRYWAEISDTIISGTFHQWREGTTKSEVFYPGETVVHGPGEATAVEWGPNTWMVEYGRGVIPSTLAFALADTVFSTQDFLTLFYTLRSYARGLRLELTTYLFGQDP

[26] = biological target: Muscarinic acetylcholine receptor M3 (Homo sapiens) (UniProt P20309); experiment: Displacement of [3H]4-DAMP from human recombinant M3 receptor at 10 uM after 60 mins by scintillation counting analysis relative to control
Muscarinic acetylcholine receptor M3 (Homo sapiens), sequence (P20309 whole entry, looked up): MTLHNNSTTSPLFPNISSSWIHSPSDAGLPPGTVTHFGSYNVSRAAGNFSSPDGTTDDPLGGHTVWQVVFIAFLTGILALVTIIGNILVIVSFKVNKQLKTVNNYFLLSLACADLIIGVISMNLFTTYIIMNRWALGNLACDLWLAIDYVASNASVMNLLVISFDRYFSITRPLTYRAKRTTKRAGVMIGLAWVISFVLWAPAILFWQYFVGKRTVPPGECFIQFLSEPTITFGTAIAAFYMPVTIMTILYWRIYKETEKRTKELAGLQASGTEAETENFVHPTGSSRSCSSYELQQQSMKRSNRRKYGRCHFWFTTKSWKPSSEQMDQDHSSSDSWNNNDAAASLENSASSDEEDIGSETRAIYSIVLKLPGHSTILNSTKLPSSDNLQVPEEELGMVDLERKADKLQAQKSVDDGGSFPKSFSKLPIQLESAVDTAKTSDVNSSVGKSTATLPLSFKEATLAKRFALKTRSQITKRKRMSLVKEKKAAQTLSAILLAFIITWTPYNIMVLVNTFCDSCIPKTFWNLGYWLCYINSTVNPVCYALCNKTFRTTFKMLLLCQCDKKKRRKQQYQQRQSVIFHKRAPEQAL

Rattus norvegicus [27] = species on record: Rattus norvegicus; experiment: Displacement of [3H]-Nitrendipine from L-type calcium channel dihydropyridine binding site in rat brain at 10 uM incubated for 90 mins by scintillation counting analysis relative to control; format: tissue-based
[28] = biological target: Beta-2 adrenergic receptor (Homo sapiens) (UniProt P07550); experiment: Displacement of [3H]-(-)CGP 12177 from human recombinant adrenergic beta 2 receptor at 10 uM incubated for 120 mins by scintillation counting analysis relative to control
Beta-2 adrenergic receptor (Homo sapiens), sequence (P07550 whole entry, looked up): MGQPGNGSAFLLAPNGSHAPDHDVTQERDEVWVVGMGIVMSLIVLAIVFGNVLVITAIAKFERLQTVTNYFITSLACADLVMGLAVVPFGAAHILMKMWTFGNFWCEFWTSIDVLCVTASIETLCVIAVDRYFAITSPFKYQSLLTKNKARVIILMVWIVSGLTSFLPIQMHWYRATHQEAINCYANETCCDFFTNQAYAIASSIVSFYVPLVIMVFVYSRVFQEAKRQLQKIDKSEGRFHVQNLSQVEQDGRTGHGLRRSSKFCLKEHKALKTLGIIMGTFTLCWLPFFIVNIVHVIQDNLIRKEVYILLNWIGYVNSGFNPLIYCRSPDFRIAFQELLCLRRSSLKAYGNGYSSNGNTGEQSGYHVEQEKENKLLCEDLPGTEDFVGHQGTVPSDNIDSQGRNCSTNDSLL

[29] = biological target: D(3) dopamine receptor (Homo sapiens) (UniProt P35462); experiment: Displacement of [3H]-methyl-spiperone from human recombinant Dopamine D3 receptor at 10 uM incubated for 60 mins by scintillation counting analysis relative to control
[30] = Fraction unbound in rat plasma at 5 uM incubated for 4 hrs by equilibrium dialysis based LC-MS/MS analysis; format: ADME, cell-free

Beta-1 adrenergic receptor (Homo sapiens), sequence (P08588 whole entry, looked up): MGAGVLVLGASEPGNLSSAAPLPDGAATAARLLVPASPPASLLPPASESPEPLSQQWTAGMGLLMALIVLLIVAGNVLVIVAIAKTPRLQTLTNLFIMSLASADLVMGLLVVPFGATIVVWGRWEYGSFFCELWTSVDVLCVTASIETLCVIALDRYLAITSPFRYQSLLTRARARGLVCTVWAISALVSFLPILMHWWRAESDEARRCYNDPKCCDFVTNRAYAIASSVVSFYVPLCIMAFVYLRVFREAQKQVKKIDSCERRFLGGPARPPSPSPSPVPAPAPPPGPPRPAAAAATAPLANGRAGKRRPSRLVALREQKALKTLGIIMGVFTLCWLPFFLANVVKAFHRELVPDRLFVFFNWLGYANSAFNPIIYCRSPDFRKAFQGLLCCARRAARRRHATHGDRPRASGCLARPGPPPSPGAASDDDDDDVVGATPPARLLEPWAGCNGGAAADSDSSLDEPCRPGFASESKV

Molecule COc1cccc2c(N3CCN(c4ccccc4F)CC3)c(C#N)cnc12 has an inhibition [1] of less than 50%, an inhibition [2] of less than 50% and an inhibition [3] of less than 50%. For the same molecule, the inhibition [4] was less than 50%, the inhibition [5] was less than 50% and the inhibition [6] was less than 50%. It also gave an inhibition [7] of less than 50%, an inhibition (Rattus norvegicus [8]) of less than 50% and an EC50 [9] of 1100 nM. It also gave a Ki [10] of 430 nM, an inhibition [11] of less than 50% and an inhibition (Rattus norvegicus [12]) of less than 50%. It also gave an inhibition [13] of less than 50%, an inhibition [14] of less than 50% and an inhibition [15] of less than 50%. It also gave an inhibition (Rattus norvegicus [16]) of less than 50%, an inhibition [17] of less than 50% and an inhibition [18] of less than 50%. For the same molecule, the inhibition [19] was less than 50%, the inhibition (CHO-K1) was less than 50% and the inhibition [20] was less than 50%. For the same molecule, the inhibition (Rattus norvegicus [21]) was less than 50%, the inhibition [22] was less than 50% and the inhibition [23] was less than 50%. It also gave a fraction unbound at 4 h, 5 µM [24] of 0.051, an inhibition [25] of less than 50% and an inhibition [26] of less than 50%. The inhibition (Rattus norvegicus [27]) was less than 50%, the inhibition [28] was less than 50% and the inhibition [29] was less than 50%. For the same molecule, the fraction unbound at 4 h, 5 µM [30] was 0.032.
Molecule COc1cc(F)cc2c(N3CCN(c4ccccc4F)CC3)c(C#N)cnc12 has an inhibition ([1]; tested as the 2H-labelled form) of less than 50%, an inhibition ([2]; tested as the 2H-labelled form) of less than 50% and an inhibition ([3]; tested as the 2H-labelled form) of less than 50%. It also gave an inhibition ([4]; tested as the 2H-labelled form) of less than 50%, an inhibition ([5]; tested as the 2H-labelled form) of less than 50% and an inhibition ([6]; tested as the 2H-labelled form) of less than 50%. It also gave an inhibition ([7]; tested as the 2H-labelled form) of less than 50%, an inhibition (Rattus norvegicus [8]; tested as the 2H-labelled form) of less than 50% and an EC50 [9] of 1400 nM. For the same molecule, the IC50 [10] was greater than 10000 nM, the inhibition ([11]; tested as the 2H-labelled form) was less than 50% and the inhibition (Rattus norvegicus [12]; tested as the 2H-labelled form) was less than 50%. For the same molecule, the inhibition ([13]; tested as the 2H-labelled form) was less than 50%, the inhibition ([14]; tested as the 2H-labelled form) was less than 50% and the inhibition ([15]; tested as the 2H-labelled form) was less than 50%. For the same molecule, the inhibition (Rattus norvegicus [16]; tested as the 2H-labelled form) was less than 50%, the inhibition ([17]; tested as the 2H-labelled form) was less than 50% and the inhibition ([18]; tested as the 2H-labelled form) was less than 50%. It also gave an inhibition ([19]; tested as the 2H-labelled form) of less than 50%, an inhibition (CHO-K1; tested as the 2H-labelled form) of less than 50% and an inhibition ([20]; tested as the 2H-labelled form) of less than 50%. The inhibition (Rattus norvegicus [21]; tested as the 2H-labelled form) was less than 50%, the inhibition ([22]; tested as the 2H-labelled form) was less than 50% and the inhibition ([23]; tested as the 2H-labelled form) was less than 50%. It also gave a fraction unbound at 4 h, 5 µM [24] of 0.012, an inhibition ([25]; tested as the 2H-labelled form) of 77% and an inhibition ([26]; tested as the 2H-labelled form) of less than 50%. The inhibition (Rattus norvegicus [27]; tested as the 2H-labelled form) was less than 50%, the inhibition ([28]; tested as the 2H-labelled form) was less than 50% and the inhibition ([29]; tested as the 2H-labelled form) was less than 50%. The fraction unbound at 4 h, 5 µM [30] was 0.01.
